Like-named read-outs stand apart in the source and are kept apart here.
Columns and labels:
TRPA1 = molecular target: T1, TRPA1 (Mus musculus, UniProt Q8BLA8); experiment: IonWorks Barracuda (IWB) automated patch clamp detection of TRPA1 inhibitory activity; format: cell-based, mouse (mTRPA1); conditions: for IC50: automated patch clamp (IWB)
T1 construct: expressed in transfected cells; host or cells: HEK293
Experimental: The inhibitory activity of some compounds in the Examples of present invention on transient receptor potential channel protein TRPA1 was tested in this example. The compound of formula A (WO2010075353) was used as a positive control compound: […]
IonWorks Barracuda (IWB) automated patch clamp detection was used as test method: HEK293 cells stably expressing TRPA1 were placed in DMEM medium containing 15 μg/mL Blasticidin S HCl, 200 μg/mL Hygromycin B and 10% FBS in the T175 culture flask, and cultured in 37° C., 5% CO2 incubator. When the cell density reached about 80%, the culture medium was removed, rinsed with phosphate buffered saline (PBS) without calcium and magnesium. 3 mL of Trypsin was added to digest for 2 min, 7 mL of culture medium was added to terminate the digestion. The cells were collected to 15 mL centrifuge tube and centrifuged at 800 rpm for 3 min. After the supernatant was removed, the cells were added to appropriate volume of extracellular fluid for re-suspending, and the cell density was controlled at 2-3×10^6/mL for IWB experiment. Extracellular fluid formulation (in mM): 140 NaCl, 5 KCl, 1 MgCl2, 10 HEPES, 0.5 EGTA, 10 Glucose (pH 7.4); intracellular fluid formulation (in mM): 140 CsCl, 10 HEPES, 5 EGTA, 0.1 CaCl2, 1 MgCl2 (pH 7.2). 28 mg/mL of amphotericin B was freshly prepared with DMSO on the day of experiment, and then final concentration of 0.1 mg/mL was prepared with intracellular fluid.
Population patch clamp (PPC) plate was used in IWB experiment. The entire detection process was automatically carried out by the instrument. Extracellular fluid was added into 384 wells of PPC plate, and 6 µL of the intracellular fluid was added into plenum (under the PPC plate), 6 µL of cell fluid was added for sealing test, and finally the intracellular fluid in plenum was replaced with amphotericin B-containing intracellular fluid to establish a whole-cell recording mode after perforating sealed cells. The sampling frequency for recording TPRA1 current was 10 kHz, the cells were clamped at 0 mV, the voltage stimulation command (channel protocol) was a ramp voltage from −100 mV to +100 mV for 300 ms. This voltage stimulation was applied every 10 s, mTRPA1 current was induced by 300 µM AITC.
Data recording and current amplitude measurement export were carried out by IWB software (version 2.5.3, Molecular Devices Corporation, Union City, Calif.). No statistics was recorded for holes with sealing impedance lower than 20 MΩ. The original current data was corrected by software for leakage reduction. TRPA1 current amplitude was measured at +100 mV. […] If IC50 value of HC030031 exceeded 3 times the average IC50 value previously obtained on each plate, it would be re-tested. The dose-effect curve of compounds and IC50 were fitted and calculated by GraphPad Prism 5.02 (GraphPad Software, San Diego, Calif.).

[1] = tested on: C57BL/6 mice, formalin pain model; experiment: mice formalin pain model (Example 44); format: in vivo, mouse; conditions: 20 mg/kg intraperitoneal, phase I (0-10 min) and phase II (10-60 min), vs saline group
Experimental: Before the start of experiment, the mice were allowed to adapt to the experimental environment for 72 h without fasting. The test drug was administrated by intraperitoneal injection at a dose of 20 mg/kg, and then the mice were placed in a transparent, ventilated plexiglass cylinder for 1 h, and then 20 μl of 4% formalin solution was injected into the left hind plantar of mice of each group by microinjector. The claw pain response of mice was real-time recorded by miniature camera. The number of times of lifting (1 min/time), shaking (2 min/time), and licking (3 min/time) left claw and the time length of licking left claw were used as indicators of pain response, the cumulative scoring and licking time in two stages of 0-10 min (phase I, acute pain phase) and 10-60 min (phase II, inflammatory pain phase) were observed and recorded, and the statistical analysis was conducted.

human TRPA1 channel = molecular target: T2, human TRPA1 channel (Homo sapiens, UniProt O75762); experiment: manual patch clamp detection of TRPA1 inhibitory activity; format: cell-based
T2 construct: expressed in transfected cells; host or cells: HEK293
Experimental: The HEK293 cell line stably expressing human TRPA1 channel was placed in T75 culture flask with DMEM medium containing 15 μg/mL Blasticidin S HCl, 200 μg/mL Hygromycin B and 10% FBS, and cultured in incubator at 37° C. and 5% CO2. When the cell density reached about 80%, the culture medium was removed, the residue was rinsed with phosphate buffered saline (PBS) without calcium and magnesium. 2 mL of trypsin was added to digest for 2 minutes, and 8 mL of culture medium was added to terminate the digestion. The cells were collected to 15 mL centrifuge tube and centrifuged at 800 rpm for 3 min. After the supernatant was removed, an appropriate volume of extracellular fluid was added to re-suspend the cells.
In manual patch clamp detection, HEKA system (Patch Master software) was used together with EPC-10 amplifier to record the whole cell current of TRPA1 stably transfected cell line at room temperature. intracellular fluid formulation for whole cell recording was as follows (mM): 140 CsCl, 10 HEPES, 5 EGTA, 0.1 CaCl2, 1 MgCl2 (pH 7.2, osmotic pressure 295-300 mOsm); Ca^2+-free extracellular fluid formulation for recording was as follows (mM): 140 NaCl, 5 KCl, 0.5 EGTA, 1 MgCl2, 10 Glucose, 10 HEPES (pH 7.4, osmotic pressure 300-310 mOsm). Glass microelectrode resistance used for patch clamp recording was 2-4 MΩ, the sampling frequency was 10 kHz, the filter frequency was 2.9 kHz, the cell clamp was 0 mV, and the voltage stimulation command (channel protocol) was a linear voltage from −100 mV to +100 mV for 300 ms, then restored to 0 mV clamping potential. The recording was performed every 2 s. The hTRPA1 current was induced by 100 μM AITC. To ensure the accuracy of current recording, the series resistance was used for 60% compensation during recording.
Data recording and current amplitude measurement export were completed by Patch Master software. Cells with sealing impedance lower than 500 MΩ, w were not included in the statistics. The original current data were corrected by software for leakage reduction, and the hTRPA1 current amplitude was measured at +100 mV. The compound dose-effect curve and IC50 were fitted and calculated by GraphPad Prism 5.02 (GraphPad Software, San Diego, Calif.).

[2] = tested on: C57 mice, hot plate pain model; experiment: mice hot plate pain model; format: in vivo, mouse; conditions: 10 mg/kg intraperitoneal, hot plate 55±0.1° C., within 60 minutes
Experimental: SPF-grade C57 male mice were placed at hot plate with constant 55±0.1° C. […] If the pain reaction of mice was observed, the mice were taken out immediately to prevent mice from scalding. […] The test compounds were freshly prepared on the day of administration. 0.9% NaCl physiological saline solution was prepared as solvent for later use. Appropriate amount of test compounds were added into required volume of physiological saline and fully suspended, and the concentration of the drug compound in preparation was 1 mg/ml. The standard volume of administration to mice was 10 ml/kg (or 0.1 ml/10 g). […] The administration volume was 10 ml/kg. […] Hot plate observation index: the reaction time of mice on the hot plate at 55±0.1° C. (Time latency). Measurement and recording were conducted at 3 h before administration and 15 min, 30 min, and 60 min after administration. Maximum possible effect (MPE) % was used to evaluate analgesic effect of each compound, i.e., MPE %=[(Post drug latency-baseline latency)/(30-baseline latency)]×100. MPE % at different time points was recorded. The higher the value of MPE % was, the stronger the analgesic effect of the compound was.

[3] = tested on: ICR mice, acetic acid writhing pain model; experiment: mice acetic acid writhing pain model; format: in vivo, mouse; conditions: 10 mg/kg by gavage, within 30 min; saline group 49 times
Experimental: Male ICR mice, weighed 22-25 g, were fasted but allowed to drink water freely for 2 h before administration. All ICR mice were weighed and grouped randomly, and the number of animals in each group was >10. […] The test compound was IC-1 (the compound prepared in Example 9), and the administration dosages were 5 mg/kg and 10 mg/kg. […] When concave abdomen, stretched trunk and hind claw, and high buttocks appeared, one number point was recorded. […] After administration, the fewer visceral pains in the mice were, the stronger the analgesic effect of the compound was.

[4] = HEK293 cells stably expressing TRPA1, AITC-induced current at +100 mV, read-out: IC50 (μM) on TRPA1 in the patch clamp detection test

T1 sequence (Q8BLA8 whole entry): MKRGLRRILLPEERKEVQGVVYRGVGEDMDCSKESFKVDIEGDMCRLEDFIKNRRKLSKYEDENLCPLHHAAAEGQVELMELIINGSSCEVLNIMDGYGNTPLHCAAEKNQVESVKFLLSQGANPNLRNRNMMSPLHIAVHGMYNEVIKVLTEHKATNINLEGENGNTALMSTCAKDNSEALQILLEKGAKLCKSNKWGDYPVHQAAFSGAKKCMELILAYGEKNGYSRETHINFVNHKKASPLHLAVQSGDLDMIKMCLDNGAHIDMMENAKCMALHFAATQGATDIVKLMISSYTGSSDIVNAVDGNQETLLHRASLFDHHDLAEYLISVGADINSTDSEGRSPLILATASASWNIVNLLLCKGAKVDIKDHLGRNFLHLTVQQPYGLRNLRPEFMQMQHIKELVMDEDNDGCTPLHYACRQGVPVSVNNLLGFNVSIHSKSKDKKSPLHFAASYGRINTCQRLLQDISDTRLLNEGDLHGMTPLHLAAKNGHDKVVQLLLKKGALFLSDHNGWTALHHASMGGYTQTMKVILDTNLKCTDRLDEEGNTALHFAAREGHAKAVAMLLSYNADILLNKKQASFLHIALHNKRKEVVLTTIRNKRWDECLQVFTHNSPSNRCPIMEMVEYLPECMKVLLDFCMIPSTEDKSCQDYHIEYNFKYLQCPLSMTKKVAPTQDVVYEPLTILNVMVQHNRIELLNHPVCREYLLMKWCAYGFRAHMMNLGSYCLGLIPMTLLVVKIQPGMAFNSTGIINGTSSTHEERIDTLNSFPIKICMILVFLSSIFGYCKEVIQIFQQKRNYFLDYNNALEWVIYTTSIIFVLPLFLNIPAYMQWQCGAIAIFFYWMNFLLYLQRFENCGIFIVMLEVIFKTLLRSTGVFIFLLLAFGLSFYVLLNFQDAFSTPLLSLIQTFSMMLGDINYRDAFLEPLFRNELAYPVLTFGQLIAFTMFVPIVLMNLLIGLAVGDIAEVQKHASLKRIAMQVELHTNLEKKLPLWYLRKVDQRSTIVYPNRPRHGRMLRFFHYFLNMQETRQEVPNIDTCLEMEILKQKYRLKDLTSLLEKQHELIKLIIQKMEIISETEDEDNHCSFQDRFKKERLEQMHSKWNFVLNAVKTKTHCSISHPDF
T2 sequence (O75762 whole entry): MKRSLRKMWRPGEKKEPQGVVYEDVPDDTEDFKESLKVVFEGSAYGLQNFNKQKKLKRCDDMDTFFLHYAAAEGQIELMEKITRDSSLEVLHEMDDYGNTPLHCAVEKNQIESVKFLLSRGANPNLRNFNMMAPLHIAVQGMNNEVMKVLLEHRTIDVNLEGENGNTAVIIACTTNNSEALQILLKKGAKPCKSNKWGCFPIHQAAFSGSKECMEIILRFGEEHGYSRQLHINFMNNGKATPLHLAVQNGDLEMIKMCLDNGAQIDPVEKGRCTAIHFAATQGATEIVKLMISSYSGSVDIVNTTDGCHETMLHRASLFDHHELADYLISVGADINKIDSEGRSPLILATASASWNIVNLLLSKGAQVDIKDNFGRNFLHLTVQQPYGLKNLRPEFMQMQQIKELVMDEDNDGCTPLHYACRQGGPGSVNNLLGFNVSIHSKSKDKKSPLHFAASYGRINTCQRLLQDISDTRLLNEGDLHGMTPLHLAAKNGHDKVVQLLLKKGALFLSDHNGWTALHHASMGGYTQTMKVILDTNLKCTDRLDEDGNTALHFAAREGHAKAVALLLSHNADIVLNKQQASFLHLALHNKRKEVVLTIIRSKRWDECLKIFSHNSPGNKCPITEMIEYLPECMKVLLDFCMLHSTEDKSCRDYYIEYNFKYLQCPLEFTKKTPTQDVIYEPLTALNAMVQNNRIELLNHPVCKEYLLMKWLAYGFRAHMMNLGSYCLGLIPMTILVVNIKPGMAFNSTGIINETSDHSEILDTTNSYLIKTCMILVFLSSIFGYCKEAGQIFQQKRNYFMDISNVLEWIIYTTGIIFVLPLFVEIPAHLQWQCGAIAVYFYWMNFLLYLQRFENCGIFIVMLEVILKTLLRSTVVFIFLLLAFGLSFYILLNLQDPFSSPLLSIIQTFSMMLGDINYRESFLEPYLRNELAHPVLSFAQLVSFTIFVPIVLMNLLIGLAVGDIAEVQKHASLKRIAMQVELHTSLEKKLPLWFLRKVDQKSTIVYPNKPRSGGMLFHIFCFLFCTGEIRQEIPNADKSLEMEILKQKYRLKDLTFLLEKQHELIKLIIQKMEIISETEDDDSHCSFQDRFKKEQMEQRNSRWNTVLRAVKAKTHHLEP

| SMILES | IC50 (TRPA1; [4]) | IC50 (TRPA1; read-out: IC50 on TRPA1) | also measured |
| --- | --- | --- | --- |
| CNCC[C@H](Oc1cccc2ccoc12)c1ccsc1 [Compound IC-2, (S)-3-(benzofuran-7-yloxy)-N-methyl-3-(thiophen-3-yl)propyl-1-amine] | 5 to 10 µM |  |  |
| CNCC[C@H](Oc1cccc2ccoc12)c1ccoc1 [Compound IC-3, (S)-3-(benzofuran-7-yloxy)-N-methyl-3-(furan-3-yl)propyl-1-amine] | 1 to 5 µM | < 5 µM |  |
| CNCC[C@H](Oc1cccc2ccoc12)c1ccco1 [Compound IC-4, (S)-3-(benzofuran-7-yloxy)-N-methyl-3-(furan-2-yl)propyl-1-amine] | 1 to 5 µM | < 5 µM |  |
| CN(C)CC[C@H](Oc1cccc2ccoc12)c1cccs1 [Compound IC-8, (S)-3-(benzofuran-7-yloxy)-N,N-dimethyl-3-(thiophen-2-yl)propyl-1-amine] | 1 to 5 µM | < 5 µM |  |
| CNCC[C@H](Oc1cccc2c1CCC2)c1cccs1 [Compound IC-10, (S)-3-(2,3-dihydro-1H-inden-4-yloxy)-N-methyl-3-(2-thienyl)propyl-1-amine] | 5 to 10 µM |  | the IC50 of compound C1/the IC50 of compound IC-10 (TRPA1; TRPA1, automated patch clamp): about 2.5 fold; analgesic activity, licking time [1]: almost completely inhibited licking claw behavior caused by pain; IC50 (human TRPA1 channel; HEK293 stably expressing human TRPA1, 100 μM AITC, +100 mV): 1.12 µM; ratio of IC50 of S configuration of duloxetine to IC50 of the compound, manual patch clamp (human TRPA1 channel; manual patch clamp): 3.9; analgesic effect (MPE %) on hot plate [2]: stronger than those of gabapentin and duloxetine |
| NCC[C@H](Oc1cccc2ccoc12)c1cccs1 [Compound IC-23, (S)-3-(benzofuran-7-yloxy)-3-(thiophen-2-yl) propyl-1-amine] | 1 to 5 µM | < 5 µM | analgesic effect (MPE %) on hot plate [2]: very potent analgesic effect |
| NCC[C@H](Oc1cccc2ccoc12)c1ccoc1 [Compound IC-24, (S)-3-(benzofuran-7-yloxy)-3-(furan-3-yl)propyl-1-amine] | 1 to 5 µM | < 5 µM |  |
| NCC[C@H](Oc1cccc2ccoc12)c1ccco1 [Compound IC-25, (S)-3-(benzofuran-7-yloxy)-3-(furan-2-yl) propyl-1-amine] | 1 to 5 µM |  |  |
| NCC[C@H](Oc1cccc2ccoc12)c1ccsc1 [Compound IC-26, (S)-3(benzofuran-7-yloxy)-3-(thiophen-3-yl) propyl-1-amine] | 5 to 10 µM |  |  |
| CNCC[C@H](Oc1cccc2ccoc12)c1cnco1 [Compound IC-29, (S)-3-(benzofuran-7-yloxy)-N-methyl-3-(oxazol-5-yl)propyl-1-amine] | 5 to 10 µM |  |  |
| CNCC[C@H](Oc1cccc2ccccc12)c1cccs1 [Duloxetine (R configuration), Duloxetine, reference compound] | 20 to 50 µM | 48.5 µM |  |
| CN1[C@H]2C[C@H](OC(=O)[C@H](CO)c3ccccc3)C[C@@H]1[C@@H](O)C2 [anisodamine, reference compound] |  |  | number of appearance of writhing reaction [3]: 27 times |
| COc1ccc2c(c1)c(CC(=O)O)c(C)n2C(=O)c1ccc(Cl)cc1 [indomethacin, reference compound] |  |  | number of appearance of writhing reaction [3]: 28 times |

Source: US20220119375A1, “3-ARYLOXY-3-ARYL-PROPYLAMINE COMPOUND AND USES THEREOF” (Zhangzhou Pien Tze Huang Pharmaceutical Co., Ltd., priority 2018, published 2022)
